# The source made the active and inactive calls. The rule behind the calls is not given here.
# Key:
# BaF3 [1] = test: Antiproliferative activity against wild type mouse BaF3 cells assessed as inhibition of cell growth measured after 3 days by celltiter-glo luminescent cell viability assay; format: functional, cell-based; settings: BaF3, 72 h
# [2] = MRT (0 to t) in mouse at 10 mg/kg, po; format: ADME, organism-based; settings: in vivo
# MOLM-13 [3] = test: Induction of cell cycle arrest in human MOLM-13 cells assessed as accumulation of cells at S phase at 0.3 uM incubated for 48 hrs (reference value: 41.6%); format: functional
# [4] = AUC (0 to t) in mouse at 10 mg/kg, po; format: ADME, organism-based; settings: in vivo
# MOLM-13 [5] = test: Induction of apoptosis in human MOLM-13 cells assessed as necrotic cells at 1 uM incubated for 48 hrs by Annexin V-FITC/PI staining based flow cytometry analysis (reference value: 0.077%); format: functional
# [6] = Metabolic stability in Sprague-Dawley rat liver microsomes assessed as parent compound remaining at 1 uM measured after 60 mins in presence of NADPH regenerating system by LC-MS/MS analysis; format: ADME, Microsome; settings: read-out: Stability
# [7] = Cmax in mouse at 10 mg/kg, po; format: ADME, organism-based; settings: in vivo
# [8] = Metabolic stability in Beagle dog liver microsomes assessed as parent compound remaining at 1 uM measured after 60 mins in presence of NADPH regenerating system by LC-MS/MS analysis; format: ADME, Canis lupus familiaris, Microsome; settings: read-out: Stability
# [9] = target: Cyclin-dependent kinase 1/cyclin B1 (Homo sapiens) (UniProt P06493+P14635); test: Inhibition of human CDK1/CyclinB1 at 1 uM by Eurofins-DiscoverX assay; format: protein-complex assay
# Chain of Cyclin-dependent kinase 1/cyclin B1 (Homo sapiens) (P06493 whole entry, looked up): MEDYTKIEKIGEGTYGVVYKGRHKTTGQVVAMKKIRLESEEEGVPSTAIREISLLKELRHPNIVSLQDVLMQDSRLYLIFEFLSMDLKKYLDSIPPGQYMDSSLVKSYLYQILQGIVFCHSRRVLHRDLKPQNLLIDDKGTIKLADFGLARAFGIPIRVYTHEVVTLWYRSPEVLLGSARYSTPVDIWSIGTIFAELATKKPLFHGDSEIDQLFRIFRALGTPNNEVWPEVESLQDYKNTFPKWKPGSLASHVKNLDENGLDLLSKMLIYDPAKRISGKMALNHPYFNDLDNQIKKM
# Chain of Cyclin-dependent kinase 1/cyclin B1 (Homo sapiens) (P14635 whole entry, looked up): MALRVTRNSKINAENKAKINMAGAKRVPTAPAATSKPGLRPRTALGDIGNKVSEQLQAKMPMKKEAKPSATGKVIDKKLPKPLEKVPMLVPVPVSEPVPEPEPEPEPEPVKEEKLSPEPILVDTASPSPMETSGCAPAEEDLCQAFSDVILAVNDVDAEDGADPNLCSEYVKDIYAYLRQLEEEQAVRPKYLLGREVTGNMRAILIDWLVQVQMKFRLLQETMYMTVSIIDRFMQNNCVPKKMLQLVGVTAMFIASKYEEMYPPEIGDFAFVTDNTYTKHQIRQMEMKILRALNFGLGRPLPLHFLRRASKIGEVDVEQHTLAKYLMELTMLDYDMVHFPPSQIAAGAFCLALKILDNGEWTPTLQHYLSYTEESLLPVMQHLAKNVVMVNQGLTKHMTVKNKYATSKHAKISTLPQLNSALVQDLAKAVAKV
# MOLM-14 = test: Antiproliferative activity against human MOLM-14 cells harbouring FLT3-ITD assessed as inhibition of cell growth measured after 3 days by celltiter-glo luminescent cell viability assay; format: functional, cell-based; settings: MOLM-14, 72 h
# MOLM-13 [10] = test: Induction of cell cycle arrest in human MOLM-13 cells incubated for 48 hrs; format: functional, cell-based; settings: dose 0.1-1 µM
# [11] = AUC (0 to infinity) in mouse at 10 mg/kg, po; format: ADME, organism-based; settings: in vivo
# [12] = Tmax in mouse at 10 mg/kg, po; format: ADME, organism-based; settings: in vivo
# MOLM-13 [13] = test: Antitumor activity against human MOLM-13 xenografted in male nude mouse assessed as tumor growth inhibition at 30 mg/kg, po administered once daily for 14 days by vernier caliper method relative to control; format: functional; settings: MOLM-13, 336 h, time 14 day, read-out: TGI
# MOLM-13 [14] = test: Inhibition of STAT5 phosphorylation in human MOLM-13 cells at 0.2 uM measured after 2 hrs by Western blot analysis relative to control; format: cell-based
# [15] = AUC (0 to infinity) in mouse at 5 mg/kg, iv; format: ADME, organism-based; settings: in vivo
# MOLM-13 [16] = test: Induction of cell cycle arrest in human MOLM-13 cells assessed as accumulation of cells at G1 phase at 1 uM incubated for 48 hrs (reference value: 40.3%); format: functional
# [17] = Half life in mouse at 10 mg/kg, po; format: ADME, organism-based; settings: in vivo
# [18] = target: Vascular endothelial growth factor receptor 3 (Homo sapiens, UniProt P35916); test: Inhibition of FLT4 (unknown origin) using Fluorescein-Poly GT as substrate preincubated for 10 mins followed by substrate addition and measured after 30 mins in presence of ATP by mobility shift assay
# MOLM-13 [19] = test: Induction of cell cycle arrest in human MOLM-13 cells assessed as accumulation of cells at S phase at 0.1 uM incubated for 48 hrs (reference value: 41.6%); format: functional
# MOLM-13 [20] = test: Induction of cell cycle arrest in human MOLM-13 cells assessed as accumulation of cells at G2 phase at 0.1 uM incubated for 48 hrs (reference value: […]); format: functional
# MOLM-13 [21] = test: Induction of apoptosis in human MOLM-13 cells assessed as early apoptotic cells at 0.1 uM incubated for 48 hrs by Annexin V-FITC/PI staining based flow cytometry analysis (reference value: 4.93%); format: functional
# MOLM-13 [22] = test: Induction of cell cycle arrest in human MOLM-13 cells assessed as accumulation of cells at G1 phase at 0.3 uM incubated for 48 hrs (reference value: 40.3%); format: functional
# [23] = target: Receptor-type tyrosine-protein kinase FLT3 (Homo sapiens, UniProt P36888); test: Inhibition of FLT3 (unknown origin) using Fluorescein-Poly GT as substrate preincubated for 10 mins followed by substrate addition and measured after 30 mins in presence of ATP by mobility shift assay
# Chain of Receptor-type tyrosine-protein kinase FLT3 (Homo sapiens, UniProt P36888) (P36888 whole entry): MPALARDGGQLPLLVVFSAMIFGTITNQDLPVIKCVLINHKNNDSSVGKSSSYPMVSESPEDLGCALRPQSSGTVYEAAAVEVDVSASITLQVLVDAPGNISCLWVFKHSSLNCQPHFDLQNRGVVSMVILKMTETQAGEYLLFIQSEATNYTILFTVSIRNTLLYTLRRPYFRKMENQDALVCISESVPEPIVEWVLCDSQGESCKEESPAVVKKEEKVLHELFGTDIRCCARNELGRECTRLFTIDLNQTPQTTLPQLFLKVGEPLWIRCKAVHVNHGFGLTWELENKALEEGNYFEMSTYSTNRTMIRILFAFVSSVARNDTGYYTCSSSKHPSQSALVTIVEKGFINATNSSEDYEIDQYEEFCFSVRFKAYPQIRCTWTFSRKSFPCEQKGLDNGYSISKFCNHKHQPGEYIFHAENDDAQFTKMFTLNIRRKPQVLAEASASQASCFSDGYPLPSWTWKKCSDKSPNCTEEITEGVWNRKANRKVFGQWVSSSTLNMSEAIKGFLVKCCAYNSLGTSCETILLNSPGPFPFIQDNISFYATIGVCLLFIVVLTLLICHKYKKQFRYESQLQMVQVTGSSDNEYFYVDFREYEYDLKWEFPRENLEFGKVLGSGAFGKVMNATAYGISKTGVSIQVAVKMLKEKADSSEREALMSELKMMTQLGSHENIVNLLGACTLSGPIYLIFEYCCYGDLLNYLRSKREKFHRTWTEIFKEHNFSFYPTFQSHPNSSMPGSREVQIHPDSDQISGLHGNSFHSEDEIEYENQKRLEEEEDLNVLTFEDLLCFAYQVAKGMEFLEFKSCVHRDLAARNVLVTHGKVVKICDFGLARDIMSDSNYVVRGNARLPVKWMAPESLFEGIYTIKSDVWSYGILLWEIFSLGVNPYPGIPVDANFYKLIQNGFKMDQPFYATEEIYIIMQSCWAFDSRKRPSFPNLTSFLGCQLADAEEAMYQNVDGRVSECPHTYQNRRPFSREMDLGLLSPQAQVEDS
# MOLM-13 [24] = test: Induction of apoptosis in human MOLM-13 cells assessed as late apoptotic cells at 0.3 uM incubated for 48 hrs by Annexin V-FITC/PI staining based flow cytometry analysis (reference value: 3.10%); format: functional
# MOLM-13 [25] = test: Induction of apoptosis in human MOLM-13 cells assessed as viable cells at 1 uM incubated for 48 hrs by Annexin V-FITC/PI staining based flow cytometry analysis (reference value: 91.9%); format: functional; settings: read-out: Activity
# BaF3 [26] = test: Antiproliferative activity against mouse BaF3 cells harbouring FLT3-ITD assessed as inhibition of cell growth measured after 3 days by celltiter-glo luminescent cell viability assay; format: functional, cell-based; settings: BaF3, 72 h
# [27] = AUC (0 to t) in mouse at 5 mg/kg, iv; format: ADME, organism-based; settings: in vivo
# MOLM-13 [28] = test: Induction of apoptosis in human MOLM-13 cells assessed as viable cells at 0.3 uM incubated for 48 hrs by Annexin V-FITC/PI staining based flow cytometry analysis (reference value: 91.9%); format: functional; settings: read-out: Activity
# [29] = Oral bioavailability in mouse at 10 mg/kg; format: ADME, organism-based; settings: in vivo
# [30] = Metabolic stability in Sprague-Dawley rat liver microsomes assessed as parent compound remaining at 1 uM measured after 60 mins by LC-MS/MS analysis; format: ADME, Microsome; settings: read-out: Stability
# [31] = Clearance in mouse at 5 mg/kg, iv; format: ADME, organism-based; settings: in vivo
# [32] = target: CDK3/Cyclin E (Homo sapiens) (UniProt P24864+Q00526); test: Inhibition of human CDK3/CyclinE at 1 uM by Eurofins-DiscoverX assay; format: protein-complex assay
# Chain of CDK3/Cyclin E (Homo sapiens) (P24864 whole entry, looked up): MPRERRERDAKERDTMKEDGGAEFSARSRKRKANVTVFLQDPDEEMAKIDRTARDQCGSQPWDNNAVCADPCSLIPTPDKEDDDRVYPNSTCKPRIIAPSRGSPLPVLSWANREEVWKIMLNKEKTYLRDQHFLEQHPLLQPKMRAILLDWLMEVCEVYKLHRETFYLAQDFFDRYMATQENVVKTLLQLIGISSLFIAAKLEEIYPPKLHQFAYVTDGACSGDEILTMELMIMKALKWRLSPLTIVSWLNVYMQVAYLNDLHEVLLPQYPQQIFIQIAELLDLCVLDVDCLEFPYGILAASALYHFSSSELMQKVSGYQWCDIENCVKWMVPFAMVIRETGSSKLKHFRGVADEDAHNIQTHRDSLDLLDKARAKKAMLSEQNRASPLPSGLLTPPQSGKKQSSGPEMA
# Chain of CDK3/Cyclin E (Homo sapiens) (Q00526 whole entry, looked up): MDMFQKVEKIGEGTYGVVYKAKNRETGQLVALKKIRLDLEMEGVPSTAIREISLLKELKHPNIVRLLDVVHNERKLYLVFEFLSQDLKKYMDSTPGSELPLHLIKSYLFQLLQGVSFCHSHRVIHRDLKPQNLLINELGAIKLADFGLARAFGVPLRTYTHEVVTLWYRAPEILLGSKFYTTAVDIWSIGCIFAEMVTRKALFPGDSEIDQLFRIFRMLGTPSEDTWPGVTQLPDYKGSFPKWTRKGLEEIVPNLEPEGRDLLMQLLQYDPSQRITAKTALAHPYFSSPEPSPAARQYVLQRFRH
# [33] = target: Mast/stem cell growth factor receptor Kit (Homo sapiens) (UniProt P10721); test: Inhibition of human c-Kit at 1 uM by Eurofins-DiscoverX assay
# Chain of Mast/stem cell growth factor receptor Kit (Homo sapiens) (P10721 whole entry): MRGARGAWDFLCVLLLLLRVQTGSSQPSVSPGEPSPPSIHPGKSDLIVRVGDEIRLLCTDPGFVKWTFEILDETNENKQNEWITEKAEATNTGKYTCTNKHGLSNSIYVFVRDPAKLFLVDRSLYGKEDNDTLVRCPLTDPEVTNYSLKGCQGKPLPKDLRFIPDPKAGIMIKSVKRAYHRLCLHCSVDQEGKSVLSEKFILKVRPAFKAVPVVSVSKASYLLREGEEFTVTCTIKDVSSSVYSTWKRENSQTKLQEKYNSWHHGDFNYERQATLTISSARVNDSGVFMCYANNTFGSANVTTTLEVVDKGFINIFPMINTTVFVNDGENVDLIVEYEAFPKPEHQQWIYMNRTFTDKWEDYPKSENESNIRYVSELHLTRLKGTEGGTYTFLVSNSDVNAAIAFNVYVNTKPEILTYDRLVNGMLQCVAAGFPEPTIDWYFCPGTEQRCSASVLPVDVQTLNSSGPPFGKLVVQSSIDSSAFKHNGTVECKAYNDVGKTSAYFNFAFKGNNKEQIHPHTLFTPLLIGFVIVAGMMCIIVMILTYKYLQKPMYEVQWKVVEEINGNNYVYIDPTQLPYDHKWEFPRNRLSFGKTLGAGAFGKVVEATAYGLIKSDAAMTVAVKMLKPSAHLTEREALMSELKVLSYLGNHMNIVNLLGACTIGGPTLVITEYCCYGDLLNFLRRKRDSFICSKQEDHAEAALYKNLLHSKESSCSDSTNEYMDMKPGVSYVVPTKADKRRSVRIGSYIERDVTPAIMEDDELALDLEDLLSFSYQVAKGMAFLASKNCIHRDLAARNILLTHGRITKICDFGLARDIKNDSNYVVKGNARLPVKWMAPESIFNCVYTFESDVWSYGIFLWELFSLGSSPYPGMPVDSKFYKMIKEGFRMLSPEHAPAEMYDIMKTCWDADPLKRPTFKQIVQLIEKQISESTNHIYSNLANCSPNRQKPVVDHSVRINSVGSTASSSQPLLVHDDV
# [34] = target: Receptor-type tyrosine-protein kinase FLT3 (Homo sapiens, UniProt P36888, ITD); test: Inhibition of FLT3 ITD mutant (unknown origin) using Fluorescein-Poly GT as substrate preincubated for 10 mins followed by substrate addition and measured after 30 mins in presence of ATP by mobility shift assay
# Chain of Receptor-type tyrosine-protein kinase FLT3 (Homo sapiens, UniProt P36888, ITD) (P36888 whole entry, looked up, stated change not applied): as the sequence (P36888 whole entry) above
# BaF3 [35] = test: Antiproliferative activity against mouse BaF3 cells harbouring TEL-FLT3 assessed as inhibition of cell growth measured after 3 days by celltiter-glo luminescent cell viability assay; format: functional, cell-based; settings: BaF3, 72 h
# BaF3 [36] = test: Antiproliferative activity against mouse BaF3 cells harbouring VEGFR2 assessed as inhibition of cell growth measured after 3 days by celltiter-glo luminescent cell viability assay; format: functional, cell-based; settings: BaF3, 72 h
# [37] = target: Vascular endothelial growth factor receptor 1 (Homo sapiens, UniProt P17948); test: Inhibition of FLT1 (unknown origin) using Fluorescein-Poly GT as substrate preincubated for 10 mins followed by substrate addition and measured after 30 mins in presence of ATP by mobility shift assay
# Chain of Vascular endothelial growth factor receptor 1 (P17948 whole entry): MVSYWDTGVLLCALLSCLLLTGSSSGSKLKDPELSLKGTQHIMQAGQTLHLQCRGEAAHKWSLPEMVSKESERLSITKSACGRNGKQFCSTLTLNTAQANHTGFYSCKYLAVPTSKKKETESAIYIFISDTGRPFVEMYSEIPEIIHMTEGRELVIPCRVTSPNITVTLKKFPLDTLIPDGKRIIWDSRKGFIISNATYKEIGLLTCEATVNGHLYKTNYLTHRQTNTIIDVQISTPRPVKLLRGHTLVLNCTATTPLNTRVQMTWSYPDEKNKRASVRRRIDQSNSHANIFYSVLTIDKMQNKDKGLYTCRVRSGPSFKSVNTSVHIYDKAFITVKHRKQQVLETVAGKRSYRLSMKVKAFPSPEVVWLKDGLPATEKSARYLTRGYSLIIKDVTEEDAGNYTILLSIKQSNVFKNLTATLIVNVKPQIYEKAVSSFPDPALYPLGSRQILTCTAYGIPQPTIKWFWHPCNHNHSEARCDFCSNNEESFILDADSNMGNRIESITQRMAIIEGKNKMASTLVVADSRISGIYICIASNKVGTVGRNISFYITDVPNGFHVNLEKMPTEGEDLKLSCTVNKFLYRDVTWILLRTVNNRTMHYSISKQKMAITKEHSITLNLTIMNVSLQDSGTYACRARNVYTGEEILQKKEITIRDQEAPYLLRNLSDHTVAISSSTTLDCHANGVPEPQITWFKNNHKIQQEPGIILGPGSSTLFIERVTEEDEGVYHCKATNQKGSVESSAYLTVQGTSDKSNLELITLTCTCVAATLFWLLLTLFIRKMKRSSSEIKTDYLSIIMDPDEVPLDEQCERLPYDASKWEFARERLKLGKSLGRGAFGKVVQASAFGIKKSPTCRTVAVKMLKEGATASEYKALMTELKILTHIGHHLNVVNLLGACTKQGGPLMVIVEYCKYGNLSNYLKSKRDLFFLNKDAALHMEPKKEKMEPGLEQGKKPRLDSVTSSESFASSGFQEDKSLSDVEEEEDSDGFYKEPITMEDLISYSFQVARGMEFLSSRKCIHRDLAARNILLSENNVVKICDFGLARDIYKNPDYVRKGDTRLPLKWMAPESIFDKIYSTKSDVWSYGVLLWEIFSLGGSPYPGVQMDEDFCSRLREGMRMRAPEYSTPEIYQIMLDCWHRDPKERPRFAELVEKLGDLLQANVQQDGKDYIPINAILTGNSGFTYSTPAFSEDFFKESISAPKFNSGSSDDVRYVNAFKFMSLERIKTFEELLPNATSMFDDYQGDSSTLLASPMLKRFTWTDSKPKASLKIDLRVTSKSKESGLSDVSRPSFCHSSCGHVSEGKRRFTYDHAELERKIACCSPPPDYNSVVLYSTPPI
# MOLM-13 [38] = test: Induction of cell cycle arrest in human MOLM-13 cells assessed as accumulation of cells at S phase at 1 uM incubated for 48 hrs (reference value: 41.6%); format: functional
structure (smiles),measurement,setting,value
Cc1cc(=O)n(-c2cc(Cl)ccc2F)nc1C(=O)Nc1ccc(Oc2ccnc(NC(=O)N3CC(O)C3)c2)c(F)c1,IC50,BaF3 [1],> 10000 nM
same,MRT last,[2],3.37 h
same,Activity,MOLM-13 [3],17.1%
same,AUC(0-t),[4],1400 ng·h/mL
same,Activity,MOLM-13 [5],0.74%
same,"remaining at 1 h, 1 µM",[6],69.2%
same,Cmax,[7],306 ng/mL
same,"remaining at 1 h, 1 µM",[8],72.7%
same,inhibition,[9],inactive
same,IC50,MOLM-14,510 nM
same,Activity,MOLM-13 [10],Dose-dependent-effect
same,AUC(0-inf),[11],1430 ng·h/mL
same,Tmax,[12],1.17 h
same,inhibition in vivo at 30 mg/kg,MOLM-13 [13],77.1%
same,inhibition,MOLM-13 [14],100%
same,AUC(0-inf),[15],2210 ng·h/mL
same,Activity,MOLM-13 [16],78.2%
same,half-life,[17],1.83 h
same,IC50,[18],166 nM
same,Activity,MOLM-13 [19],40.5%
same,Activity,MOLM-13 [20],9.39%
same,Activity,MOLM-13 [21],5.69%
same,Activity,MOLM-13 [22],75.8%
same,IC50,[23],475 nM
same,Activity,MOLM-13 [24],12.3%
same,viability at 1 µM,MOLM-13 [25],33.5%
same,IC50,BaF3 [26],190 nM
same,AUC(0-t),[27],2030 ng·h/mL
same,viability at 0.3 µM,MOLM-13 [28],74.2%
same,bioavailability,[29],32.4%
same,"remaining at 1 h, 1 µM",[30],108%
same,clearance,[31],38.8 mL/min/kg
same,inhibition,[32],inactive
same,inhibition,[33],inactive
same,IC50,[34],153 nM
same,IC50,BaF3 [35],3690 nM
same,IC50,BaF3 [36],310 nM
same,IC50,[37],348 nM
same,Activity,MOLM-13 [38],21.2%

# From ChEMBL document CHEMBL6109114, “Design, synthesis, and biological evaluation of 4-(2-fluorophenoxy)pyridine derivatives as novel FLT3-ITD inhibitors” (Eur J Med Chem, 2025)
